System: p53 signaling pathway in MT373 tumors
Experiment: MT373 syngeneic sarcoma model: mouse p53 signaling pathway profiling panel
Type: in vivo

CCn1c(C#CCNc2ccccc2)cc2cc(CNC3CCN(C)CC3)ccc21 [Compound 1, 1-Anilino-3-{1-ethyl-5-[(1-methyl-4-piperidylamino)methyl]-1H-indol-2-yl}-2-propyne]
Il6 fold increase or percent reduction vs vehicle control (150 mg/kg BIDx1, 8 h): 42.72 fold or %
Jun fold increase or percent reduction vs vehicle control (150 mg/kg BIDx1, 8 h): 32.68 fold or %
Kras fold increase or percent reduction vs vehicle control (150 mg/kg BIDx1, 8 h): 8.77 fold or %
Lig4 fold increase or percent reduction vs vehicle control (150 mg/kg BIDx1, 8 h): 9.59 fold or %
Mdm2 fold increase or percent reduction vs vehicle control (150 mg/kg BIDx1, 8 h): 7.29 fold or %
Mdm4 fold increase or percent reduction vs vehicle control (150 mg/kg BIDx1, 8 h): 0.59 fold or %
Mel1 fold increase or percent reduction vs vehicle control (150 mg/kg BIDx1, 8 h): 3.87 fold or %
Mlh1 fold increase or percent reduction vs vehicle control (150 mg/kg BIDx1, 8 h): 28.64 fold or %
Msh2 fold increase or percent reduction vs vehicle control (150 mg/kg BIDx1, 8 h): 35.13 fold or %
Myod1 fold increase or percent reduction vs vehicle control (150 mg/kg BIDx1, 8 h): 14.90 fold or %
Nf1 fold increase or percent reduction vs vehicle control (150 mg/kg BIDx1, 8 h): 17.13 fold or %
Nfkb1 fold increase or percent reduction vs vehicle control (150 mg/kg BIDx1, 8 h): 6.02 fold or %
Pcna fold increase or percent reduction vs vehicle control (150 mg/kg BIDx1, 8 h): 44.75 fold or %
Pmaip1 fold increase or percent reduction vs vehicle control (150 mg/kg BIDx1, 8 h): 2.33 fold or %
Ppm1d fold increase or percent reduction vs vehicle control (150 mg/kg BIDx1, 8 h): 1.44 fold or %
Prc1 fold increase or percent reduction vs vehicle control (150 mg/kg BIDx1, 8 h): 17.14 fold or %
Prkca fold increase or percent reduction vs vehicle control (150 mg/kg BIDx1, 8 h): 27.03 fold or %
Pten fold increase or percent reduction vs vehicle control (150 mg/kg BIDx1, 8 h): 14.47 fold or %
Pttg1 fold increase or percent reduction vs vehicle control (150 mg/kg BIDx1, 8 h): 3.91 fold or %
Rb1 fold increase or percent reduction vs vehicle control (150 mg/kg BIDx1, 8 h): 1.08 fold or %
Rela fold increase or percent reduction vs vehicle control (150 mg/kg BIDx1, 8 h): 5.08 fold or %
Rprm fold increase or percent reduction vs vehicle control (150 mg/kg BIDx1, 8 h): 1.81 fold or %
Serpinb5 fold increase or percent reduction vs vehicle control (150 mg/kg BIDx1, 8 h): 2.43 fold or %
Sesn2 fold increase or percent reduction vs vehicle control (150 mg/kg BIDx1, 8 h): 2.88 fold or %
Sfn fold increase or percent reduction vs vehicle control (150 mg/kg BIDx1, 8 h): 15.09 fold or %
Sirt1 fold increase or percent reduction vs vehicle control (150 mg/kg BIDx1, 8 h): 24.95 fold or %
Stat1 fold increase or percent reduction vs vehicle control (150 mg/kg BIDx1, 8 h): 1.23 fold or %
Tnf fold increase or percent reduction vs vehicle control (150 mg/kg BIDx1, 8 h): 1.57 fold or %
Traf1 fold increase or percent reduction vs vehicle control (150 mg/kg BIDx1, 8 h): 1.4 fold or %
Trp53bp2 fold increase or percent reduction vs vehicle control (150 mg/kg BIDx1, 8 h): 29.54 fold or %
Trp53 fold increase or percent reduction vs vehicle control (150 mg/kg BIDx1, 8 h): 16.49 fold or %
Apex1 fold increase or percent reduction vs vehicle control (150 mg/kg BIDx1, 24 h): 29.90 fold or %
Atm fold increase or percent reduction vs vehicle control (150 mg/kg BIDx1, 24 h): 24.13 fold or %
Atr fold increase or percent reduction vs vehicle control (150 mg/kg BIDx1, 24 h): 14.58 fold or %
Bag1 fold increase or percent reduction vs vehicle control (150 mg/kg BIDx1, 24 h): 32.76 fold or %
Bax fold increase or percent reduction vs vehicle control (150 mg/kg BIDx1, 24 h): 1.61 fold or %
Bbc3 fold increase or percent reduction vs vehicle control (150 mg/kg BIDx1, 24 h): 2.27 fold or %
Bcl2 fold increase or percent reduction vs vehicle control (150 mg/kg BIDx1, 24 h): 20.93 fold or %
Bid fold increase or percent reduction vs vehicle control (150 mg/kg BIDx1, 24 h): 1.08 fold or %
Birc5 fold increase or percent reduction vs vehicle control (150 mg/kg BIDx1, 24 h): 53.57 fold or %
Brca1 fold increase or percent reduction vs vehicle control (150 mg/kg BIDx1, 24 h): 44.99 fold or %
Brca2 fold increase or percent reduction vs vehicle control (150 mg/kg BIDx1, 24 h): 34.71 fold or %
Btg2 fold increase or percent reduction vs vehicle control (150 mg/kg BIDx1, 24 h): 1.06 fold or %
Casp2 fold increase or percent reduction vs vehicle control (150 mg/kg BIDx1, 24 h): 28.04 fold or %
Ccnb1 fold increase or percent reduction vs vehicle control (150 mg/kg BIDx1, 24 h): 69.21 fold or %
Ccne1 fold increase or percent reduction vs vehicle control (150 mg/kg BIDx1, 24 h): 38.46 fold or %
Ccng1 fold increase or percent reduction vs vehicle control (150 mg/kg BIDx1, 24 h): 6.84 fold or %
Ccnh fold increase or percent reduction vs vehicle control (150 mg/kg BIDx1, 24 h): 16.52 fold or %
Cdc25a fold increase or percent reduction vs vehicle control (150 mg/kg BIDx1, 24 h): 41.75 fold or %
Cdk1 fold increase or percent reduction vs vehicle control (150 mg/kg BIDx1, 24 h): 64.58 fold or %
Cdk4 fold increase or percent reduction vs vehicle control (150 mg/kg BIDx1, 24 h): 55.89 fold or %
Cdkn1a fold increase or percent reduction vs vehicle control (150 mg/kg BIDx1, 24 h): 10.93 fold or %
Cdkn2a fold increase or percent reduction vs vehicle control (150 mg/kg BIDx1, 24 h): 36.93 fold or %
Chek1 fold increase or percent reduction vs vehicle control (150 mg/kg BIDx1, 24 h): 58.77 fold or %
Cradd fold increase or percent reduction vs vehicle control (150 mg/kg BIDx1, 24 h): 18.77 fold or %
Cul9 fold increase or percent reduction vs vehicle control (150 mg/kg BIDx1, 24 h): 1.05 fold or %
Dapk1 fold increase or percent reduction vs vehicle control (150 mg/kg BIDx1, 24 h): 1.14 fold or %
Dnmt1 fold increase or percent reduction vs vehicle control (150 mg/kg BIDx1, 24 h): 22.85 fold or %
E2f1 fold increase or percent reduction vs vehicle control (150 mg/kg BIDx1, 24 h): 26.25 fold or %
E2f3 fold increase or percent reduction vs vehicle control (150 mg/kg BIDx1, 24 h): 39.40 fold or %
Egfr fold increase or percent reduction vs vehicle control (150 mg/kg BIDx1, 24 h): 47.37 fold or %
Egr1 fold increase or percent reduction vs vehicle control (150 mg/kg BIDx1, 24 h): 66.33 fold or %
Ep300 fold increase or percent reduction vs vehicle control (150 mg/kg BIDx1, 24 h): 1.15 fold or %
Ercc1 fold increase or percent reduction vs vehicle control (150 mg/kg BIDx1, 24 h): 34.86 fold or %
Esr1 fold increase or percent reduction vs vehicle control (150 mg/kg BIDx1, 24 h): 1.24 fold or %
Fadd fold increase or percent reduction vs vehicle control (150 mg/kg BIDx1, 24 h): 8.43 fold or %
Fas fold increase or percent reduction vs vehicle control (150 mg/kg BIDx1, 24 h): 1.94 fold or %
Fasl fold increase or percent reduction vs vehicle control (150 mg/kg BIDx1, 24 h): 6.77 fold or %
Foxo3 fold increase or percent reduction vs vehicle control (150 mg/kg BIDx1, 24 h): 1.20 fold or %
Gadd45a fold increase or percent reduction vs vehicle control (150 mg/kg BIDx1, 24 h): 38.66 fold or %
Hif1a fold increase or percent reduction vs vehicle control (150 mg/kg BIDx1, 24 h): 10.42 fold or %
Il6 fold increase or percent reduction vs vehicle control (150 mg/kg BIDx1, 24 h): 85.31 fold or %
Jun fold increase or percent reduction vs vehicle control (150 mg/kg BIDx1, 24 h): 46.70 fold or %
Kras fold increase or percent reduction vs vehicle control (150 mg/kg BIDx1, 24 h): 9.19 fold or %
Lig4 fold increase or percent reduction vs vehicle control (150 mg/kg BIDx1, 24 h): 1.02 fold or %
Mdm2 fold increase or percent reduction vs vehicle control (150 mg/kg BIDx1, 24 h): 5.96 fold or %
Mdm4 fold increase or percent reduction vs vehicle control (150 mg/kg BIDx1, 24 h): 1.22 fold or %
Mel1 fold increase or percent reduction vs vehicle control (150 mg/kg BIDx1, 24 h): 9.59 fold or %
Mlh1 fold increase or percent reduction vs vehicle control (150 mg/kg BIDx1, 24 h): 10.59 fold or %
Msh2 fold increase or percent reduction vs vehicle control (150 mg/kg BIDx1, 24 h): 26.97 fold or %
Myod1 fold increase or percent reduction vs vehicle control (150 mg/kg BIDx1, 24 h): 3.09 fold or %
Nf1 fold increase or percent reduction vs vehicle control (150 mg/kg BIDx1, 24 h): 12.02 fold or %
Nfkb1 fold increase or percent reduction vs vehicle control (150 mg/kg BIDx1, 24 h): 5.42 fold or %

Source: patent US20230049952A1, “METHODS AND COMPOUNDS FOR RESTORING MUTANT P53 FUNCTION” (PMV Pharmaceuticals, Inc., priority 2020, published 2023)
